{"source": "patent US20250213701A1", "about": "“MEDICAMENT FOR TREATING HUMAN TUMOR BASED ON ERF3A-TARGETING PROTEOLYSIS MECHANISM” (SUZHOU DEGEN BIO-MEDICAL CO., LTD., priority 2022, published 2025)", "assay_type_in_all_cases": "cell-based", "key": {"Hep 3B2.1-7 cells": {"system": "Hep 3B2.1-7 cells", "assay": "Anti-proliferative toxicity of C63 in tumor cell lines (CCK8): Hep 3B2.1-7", "settings": "Homo sapiens, 72 h, 3 days, read-out: Inhibition rate", "procedure": "(§1) Example 83: Detection of Anti-Proliferative Toxicity of C63 in Some Tumor Cell Lines\n(§2) Hep3B2.1-7 cells (purchased from the Cell Bank of the Chinese Academy of Sciences, Cat. No. TCHu106) were subcultured in a culture medium (MEM medium+1% penicillin-streptomycin dual-antibiotic solution+10% fetal bovine serum) in an incubator at 5% carbon dioxide and 37° C.\nHep 3B2.1-7 cells were seeded at 2000 cells/well (90 μL) on a 96-well plate and cultured for 24 h.\n(§3) 10 mM compound stock solutions were prepared in DMSO.\n(§4) The compound stock solution was diluted with DMSO to give DMSO solutions 1-9 at concentrations of 0 μM, 2500 μM, 500 μM, 100 μM, 20 μM, 4 μM, 0.8 μM, 0.16 μM, and 0.032 μM.\n(§5) 2 μL of each of solutions 1-9 was added to 98 μL of the medium to give mixed solutions 11-19 of the compound and the medium.\n(§6) 10 μL of each of solutions 11-19 was added to the above cell seed solution to give a total volume of 100 μL (90 μL+10 μL).\n(§7) The concentrations of the compound in the wells were 0 μM, 5.0 μM, 1.0 μM, 0.2 μM, 0.04 μM, 0.008 μM, 0.0016 μM, 0.00032 μM, and 0.000064 μM. All concentrations were in triplicate.\n(§8) After the above-treated cells were cultured for 3 days, 10 μL of the CCK8 solution (DOJINDO, Cat. No. PF725) was added to each well. The plate was incubated in an incubator at 37° C. for 1-4 h and then detected on a microplate reader for the reading at 450 nm."}, "HuH-7 cells": {"system": "HuH-7 cells", "assay": "Anti-proliferative toxicity of C63 in tumor cell lines (CCK8): HuH-7", "settings": "Homo sapiens, 72 h, 3 days, read-out: Inhibition rate", "procedure": "as §1\nHuH-7 cells (purchased from the Cell Bank of the Chinese Academy of Sciences, Cat. No. SCSP-526) were subcultured in a culture medium (DMEM medium+[…] penicillin-streptomycin dual-antibiotic solution+10% fetal bovine serum) in an incubator at […] and 37° C.\nHuH-7 cells were seeded at 5000 cells/well (90 μL) on a 96-well plate and cultured for 24 h.\nas §3, §4, §5, §6, §7, §8"}, "MCF-7 cells": {"system": "MCF-7 cells", "assay": "Anti-proliferative toxicity of C63 in tumor cell lines (CCK8): MCF-7", "settings": "Homo sapiens, MCF7, 72 h, 3 days, read-out: Inhibition rate", "procedure": "as §1\nas §2, with “MCF-7” for “Hep3B2.1-7”, “SCSP-531)” for “TCHu106)”, “serum+0.01 mg/mL recombinant human insulin)” for “serum)”\nMCF-7 cells were seeded at 5000 cells/well (90 μL) on a 96-well plate and cultured for 24 h.\nas §3, §4, §5, §6, §7, §8"}, "MDA-MB-231 cells": {"system": "MDA-MB-231 cells", "assay": "Anti-proliferative toxicity of C63 in tumor cell lines (CCK8): MDA-MB-231", "settings": "Homo sapiens, 72 h, 3 days, read-out: Inhibition rate", "procedure": "as §1\nMDA-MB-231 cells (purchased from the Cell Bank of the Chinese Academy of Sciences, Cat. No. TCHu227) were subcultured in a culture medium (L15 medium+1% penicillin-streptomycin dual-antibiotic solution+10% fetal bovine serum) in an incubator at 37° C.\nMDA-MB-231 cells were seeded at 5000 cells/well (90 μL) on a 96-well plate and cultured for 24 h.\nas §3, §4, §5, §6, §7, §8"}}}
{"smiles": "C[C@]12C=CC(=O)N[C@@H]1CC[C@@H]1[C@@H]2CC[C@]2(C)[C@@H](C(=O)Nc3cccc(N[C@@H]4CCC[C@@H](Nc5cccc6c5C(=O)N([C@H]5CCC(=O)NC5=O)C6=O)C4)c3)CC[C@@H]12", "note": "[C63, N-(3-(N—(N-(4-(2-(3S-(2,6-dioxopiperidine))-isoindole-1,3-dione))-1R,3R-cyclohexanediamine))phenyl)-3-oxo-4-aza-5α-androst-1-ene-17β-carboxamide]", "values": [{"measurement": "inhibition at 64 pM", "setting": "Hep 3B2.1-7 cells; 0.000064 μM", "result": 77.5, "unit": "%"}, {"measurement": "inhibition at 0.00032 µM", "setting": "Hep 3B2.1-7 cells; 0.000320 μM", "result": 90.6, "unit": "%"}, {"measurement": "inhibition at 0.0016 µM", "setting": "Hep 3B2.1-7 cells; 0.001600 μM", "result": 90.2, "unit": "%"}, {"measurement": "inhibition at 0.008 µM", "setting": "Hep 3B2.1-7 cells; 0.008000 μM", "result": 90.4, "unit": "%"}, {"measurement": "inhibition at 0.04 µM", "setting": "Hep 3B2.1-7 cells; 0.040000 μM", "result": 90.7, "unit": "%"}, {"measurement": "inhibition at 0.2 µM", "setting": "Hep 3B2.1-7 cells; 0.200000 μM", "result": 89.6, "unit": "%"}, {"measurement": "inhibition at 1 µM", "setting": "Hep 3B2.1-7 cells; 1.000000 μM", "result": 90.5, "unit": "%"}, {"measurement": "inhibition at 5 µM", "setting": "Hep 3B2.1-7 cells; 5.000000 μM", "result": 88.8, "unit": "%"}, {"measurement": "inhibition at 64 pM", "setting": "HuH-7 cells; 0.000064 μM", "result": 13.1, "unit": "%"}, {"measurement": "inhibition at 0.00032 µM", "setting": "HuH-7 cells; 0.000320 μM", "result": 59.9, "unit": "%"}, {"measurement": "inhibition at 0.0016 µM", "setting": "HuH-7 cells; 0.001600 μM", "result": 77.1, "unit": "%"}, {"measurement": "inhibition at 0.008 µM", "setting": "HuH-7 cells; 0.008000 μM", "result": 79.3, "unit": "%"}, {"measurement": "inhibition at 0.04 µM", "setting": "HuH-7 cells; 0.040000 μM", "result": 78.3, "unit": "%"}, {"measurement": "inhibition at 0.2 µM", "setting": "HuH-7 cells; 0.200000 μM", "result": 78.3, "unit": "%"}, {"measurement": "inhibition at 1 µM", "setting": "HuH-7 cells; 1.000000 μM", "result": 75.1, "unit": "%"}, {"measurement": "inhibition at 5 µM", "setting": "HuH-7 cells; 5.000000 μM", "result": 73.1, "unit": "%"}, {"measurement": "inhibition at 64 pM", "setting": "MCF-7 cells; 0.000064 μM", "result": 6.61, "unit": "%"}, {"measurement": "inhibition at 0.00032 µM", "setting": "MCF-7 cells; 0.000320 μM", "result": 14.5, "unit": "%"}, {"measurement": "inhibition at 0.0016 µM", "setting": "MCF-7 cells; 0.001600 μM", "result": 36.8, "unit": "%"}, {"measurement": "inhibition at 0.008 µM", "setting": "MCF-7 cells; 0.008000 μM", "result": 46, "unit": "%"}, {"measurement": "inhibition at 0.04 µM", "setting": "MCF-7 cells; 0.040000 μM", "result": 50.2, "unit": "%"}, {"measurement": "inhibition at 0.2 µM", "setting": "MCF-7 cells; 0.200000 μM", "result": 54.9, "unit": "%"}, {"measurement": "inhibition at 1 µM", "setting": "MCF-7 cells; 1.000000 μM", "result": 57.6, "unit": "%"}, {"measurement": "inhibition at 5 µM", "setting": "MCF-7 cells; 5.000000 μM", "result": 61.4, "unit": "%"}, {"measurement": "inhibition at 64 pM", "setting": "MDA-MB-231 cells; 0.000064 μM", "result": 27.6, "unit": "%"}, {"measurement": "inhibition at 0.00032 µM", "setting": "MDA-MB-231 cells; 0.000320 μM", "result": 62.8, "unit": "%"}, {"measurement": "inhibition at 0.0016 µM", "setting": "MDA-MB-231 cells; 0.001600 μM", "result": 75.6, "unit": "%"}, {"measurement": "inhibition at 0.008 µM", "setting": "MDA-MB-231 cells; 0.008000 μM", "result": 79.3, "unit": "%"}, {"measurement": "inhibition at 0.04 µM", "setting": "MDA-MB-231 cells; 0.040000 μM", "result": 80.1, "unit": "%"}, {"measurement": "inhibition at 0.2 µM", "setting": "MDA-MB-231 cells; 0.200000 μM", "result": 79.9, "unit": "%"}, {"measurement": "inhibition at 1 µM", "setting": "MDA-MB-231 cells; 1.000000 μM", "result": 78.8, "unit": "%"}, {"measurement": "inhibition at 5 µM", "setting": "MDA-MB-231 cells; 5.000000 μM", "result": 80.4, "unit": "%"}]}
